Data set [1] relates to MiaPaca2 (AR low) pancreatic cancer cells. Description: ATP-dependent proliferation/viability assay, MiaPaca2. The format is cell-based. The note with it: Homo sapiens, read-out: IC50. As to the method: The experimental method consisted of: • 1. […] After 24 hours, 10 nM DHT (dihydrotestosterone) with or without anti-androgen compounds, or DMSO vehicle (negative control) was added to the cultures. • 3.
(§1) Each compounds was titrated from 3 uM to 200 uM.

Data set [2] deals with stimulated PBMC (actively dividing cells). Description: IC50 on stimulated PBMC (intrinsic toxicity). The format is cell-based. The note with it: Homo sapiens, stimulated PBMC.
Experimental: The IC50 in PBMC were tested in 2 different activation status: • stimulated—actively dividing cells • resting—quiescent, non-dividing cells
IC50 of the compounds was determined on fresh cells isolated from human blood (PBMC).
Data set [3] relates to HT29 epithelial intestinal cancer cells. Description: MTT colorimetric assay on HT29. In kind it is cell-based. The note with it: Homo sapiens, 72 h. As to the method: The experiment was performed to test and define anticancer activity in vitro of Cortexolone 17α-benzoate and cortexolone 17α-valerate-21-propionate on cell lines representatives of epithelial intestinal tumors, namely HT29. The experiment method consisted in: • 1. Monolayer HT-29 cells were plated in: 96-wells plates at the density of 2×10^4 cells/mL. The cells plated were kept at 37° C. in 5% CO2 and left to attach for 24 h. • 2. Thereafter the cells were incubated for 72 h with the test compounds at the concentrations each of […]. • 3. After 72 h of treatment, the MTT colorimetric assay was performed.
On the technique in general: Formazan colour is commonly taken as a measure of viable cells.

The subject of the next data set is HT29 colon cancer cells. Description: In vitro proliferation, HT29 (cancer cell panel). The format is cell-based. The note with it: Homo sapiens. The procedure:
as §1

A further data set concerns MiaPaca2 cells. Kind of data set: Annexin V / propidium iodide apoptosis assay. In kind it is cell-based, human. The note with it: 24 hours, control 11%. As to the method: CB-03-10 was evaluated to determine if the mechanism of cytotoxicity on cancer cell lines was mediated by apoptosis and cell cycle arrest. Cancer cell lines were seeded in 6-well flat bottom plates. After 24 hours test compounds or DMSO vehicle (negative control) were added. After an additional 24 hours cells were scraped and stained with fluorescein conjugated Annexin V and propidium iodide and analyzed by flow cytometry.

A short description of data set [4]: In vitro metabolism in human plasma. In kind it is in vitro ADME. The note with it: 37° C.; FIG. 13. The procedure:
To obtain some insights on the metabolism of CB-03-10 in human and rat plasma, a specific assay was designed. Briefly the compound was incubated at different time in human and rat plasma at 37° C. After incubation the samples were tested for presence of the intact compound by liquid chromatography.

Like-named read-outs stand apart in the source and are kept apart here.

Usually inhibition stands for how much of the control response was suppressed. In the case of `CCCCC(=O)O[C@]1(C(=O)COC(=O)CC)CC[C@H]2[C@@H]3CCC4=CC(=O)CC[C@]4(C)[C@H]3CC[C@@]21C` [CB-03-10, cortexolone 17α-valerate-21-propionate], the IC50 stood at 43 µM in data set [1] (MIA PaCa-2, 72 h, MiaPaca2, 10 nM DHT, 3 days, Examples 3-4, Experiment 1); 34 µM in data set [1] (MIA PaCa-2, MiaPaca2, Example 7, Experiment 1); 106 µM in data set [2] (Example 7, Experiment 1, read-out: IC50 (microM) on Stimulated PBMC); 94 µM in data set [2] (Example 7, Experiment 2, read-out: IC50 (microM) on Stimulated PBMC); 14 µM with HT29 colon cancer cells (HT-29, read-out: In vitro proliferation IC50 (micro Molar)); 14 µM in the data set on HT29 colon cancer cells (HT-29, read-out: in vitro proliferation IC50 (μ/M)). Further, in data set [3] (HT-29, 0.8 micromolar), at 0.8 µM the inhibition was 0.44%. This molecule also displayed an inhibition at 4 µM in data set [3] (HT-29, 4 micromolar) of 14.2%. Besides, at 20 µM the inhibition in data set [3] (HT-29, 20 micromolar) was 25.5%. The molecule also came in with an inhibition at 100 µM in data set [3] (HT-29, 100 micromolar) of 89.8%. In data set [3] (HT-29, 500 micromolar), this molecule returned an inhibition at 500 µM of 92.1%. Moreover, in the data set with MiaPaca2 cells, the “cells in apoptosis (early and late), total” value is 28%. For the same molecule, in data set [4], the “degradation in human plasma” value is listed as “rapidly degraded to CB-03-05”.

Source of the values: patent US10183030B2, “17α,21-diesters of cortexolone for use in the treatment of tumors” (COSMO TECHNOLOGIES LTD., priority 2014, dated 2019).
